# Results reported in paper PMC9254247, “Dual-sensitive antibacterial peptide nanoparticles prevent dental caries” (Theranostics, 2022).
# Key:
# [1] = system: S. mutans UA159; assay: Bacterial killing assay (CFU counting), S. mutans UA159; format: cell-based, Streptococcus mutans; conditions: for bactericidal effect: 10 min
# Method: (§1) Minimal inhibition concentration (MIC) determination . S.mutans UA159 (ATCC 700610) and 20 clinical S.mutans strains were used. S.mutans UA159 was purchased from Shanghai Biofeng Biotechnology Co., LTD. These bacteria grown in brain heart infusion broth (BHI, Beijing Land Bridge, China) at 37 °C under anaerobic conditions. […]
# Bacterial killing by pHly-1 NPs at various pHs. pHly-1 NPs were diluted in BHI medium of different pHs (pH 4.5, 5.5, 6.8, and 7.0) to obtain specific diluted solutions (final volume of 200 μ L). 1 μ L bacterial suspension (2×10^8 CFU/mL) in the logarithmic phase was added into corresponding diluted solutions and mixed […]
# individually. […]
# aliquots of 20 μL bacterial suspension were plated on BHI agar plates. The bacterial killing activity of pHly -1 NPs was measured by counting the CFU of alive bacteria with agar plating after incubation under anaerobic conditions for 48 h at 37 °C. The results were determined and presented of three repeats. Bacterial survival(%) = CFU of bacteria treated with drugs/CFU of bacteria treated with negative control× 100% 2.
# The SYTO 9 / PI double staining and scanning electron microscopy (SEM) were also performed to evaluate the bacterial killing and bacterial membrane disruption.
# For SYTO 9/PI double staining, pHly -1 NPs was added to actively growing S. mutans UA159 (10^6 CFU/m L) at the concentration of 22 μM at pH 4.5 or pH 7.0, after 1 h incubation, the bacteria treated were imaged by using LIVE/DEAD BacLight Bacterial Viability Kit (Thermo Fisher Scientific). SYTO 9 and PI were added according to the manufacturer ’s protocol and used for labeling […]
# bacteria. […]
# (§2) For SEM, S. mutans UA159 was treated by the same way to SYTO 9/PI double staining asay and then harvested, washed, and then fixed in 2.5 % glutaraldehyde for 3 h. After dehydration by serial concentrations of ethanol solutions (10%, 25%, 50%, 75%, 95%, and 100%) and lyophiliz ation overnight, the lyophilized samples were coated with goldand then photographed by SEM.
# [2] = system: clinically isolated S.mutans strains; assay: Bactericidal activity against clinically isolated S. mutans strains (CFU counting); format: cell-based, Streptococcus mutans; conditions: for bacterial viability (survival): 10 min, CFU
# Method: Table S3 The bactericidal activity of pHly -1 NPs and CHX against clinically isolated S.mutans strains a
# “a” represents the bacterial viability after the pHly-1 NPs and CHX treatment for 10 min. The killing activity of pHly -1 NPs and CHX was measured against clinically isolated S.mutans strains by counting the CFU of alive bacteria. […]
# as §1
# Bacterial killing by pHly-1 NPs at various pHs. pHly-1 NPs were diluted in BHI medium of different pHs (pH 4.5, 5.5, 6.8, and 7.0) to obtain specific diluted solutions (final volume of 200 μ L). 1 μ L bacterial suspension (2×10^8 CFU/mL) in the logarithmic phase was added into corresponding diluted solutions and mixed individually. After being incubated for 10 min at 37 °C under anaerobic conditions, aliquots of 20 μL bacterial suspension were plated on BHI agar plates. The bacterial killing activity of pHly -1 NPs was measured by counting the CFU of alive bacteria with agar plating after incubation under anaerobic conditions for 48 h at 37 °C. The results were determined and presented of three repeats. Bacterial survival(%) = CFU of bacteria treated with drugs/CFU of bacteria treated with negative control× 100% 2. […]
# as §2
compound,measurement,setting,value
"[H]/N=C(\N/C(=N/[H])NCCCCCCNC(=N)NC(=N)Nc1ccc(Cl)cc1)Nc1ccc(Cl)cc1 [CHX, chlorhexidine]",bactericidal effect,"[1]; 22 μM, both acidic and neutral pH",no apparent bactericidal effect
same,bacterial survival,"[1]; 22 μM, 120 min, kinetic assay",ca. 60%
same,bactericidal effect,"[1]; 550 μM, both acidic and neutral conditions",kill bacteria completely
same,viability,"[2]; 55 μM, in 4 strains",over 90%
same,bacterial viability (survival),"[2]; strain CS-1, pH 4.5, 22 μM",95.2%
same,bacterial viability (survival),"[2]; strain CS-1, pH 4.5, 55 μM",54%
same,bacterial viability (survival),"[2]; strain CS-1, pH 5.5, 22 μM",91.6%
same,bacterial viability (survival),"[2]; strain CS-1, pH 5.5, 55 μM",31.3%
same,bacterial viability (survival),"[2]; strain CS-2, pH 4.5, 22 μM",96.4%
same,bacterial viability (survival),"[2]; strain CS-2, pH 4.5, 55 μM",69.1%
same,bacterial viability (survival),"[2]; strain CS-2, pH 5.5, 22 μM",86.9%
same,bacterial viability (survival),"[2]; strain CS-2, pH 5.5, 55 μM",76.6%
same,bacterial viability (survival),"[2]; strain CS-4, pH 4.5, 22 μM",100%
same,bacterial viability (survival),"[2]; strain CS-4, pH 4.5, 55 μM",66.4%
same,bacterial viability (survival),"[2]; strain CS-4, pH 5.5, 22 μM",100%
same,bacterial viability (survival),"[2]; strain CS-4, pH 5.5, 55 μM",74.6%
same,bacterial viability (survival),"[2]; strain CS-5, pH 4.5, 22 μM",100%
same,bacterial viability (survival),"[2]; strain CS-5, pH 4.5, 55 μM",67.7%
same,bacterial viability (survival),"[2]; strain CS-5, pH 5.5, 22 μM",89.6%
same,bacterial viability (survival),"[2]; strain CS-5, pH 5.5, 55 μM",54.9%
same,bacterial viability (survival),"[2]; strain CS-6, pH 4.5, 22 μM",106%
same,bacterial viability (survival),"[2]; strain CS-6, pH 4.5, 55 μM",67.0%
same,bacterial viability (survival),"[2]; strain CS-6, pH 5.5, 22 μM",95.6%
same,bacterial viability (survival),"[2]; strain CS-6, pH 5.5, 55 μM",88.8%
same,bacterial viability (survival),"[2]; strain CS-7, pH 4.5, 22 μM",97.0%
same,bacterial viability (survival),"[2]; strain CS-7, pH 4.5, 55 μM",54%
same,bacterial viability (survival),"[2]; strain CS-7, pH 5.5, 22 μM",91.6%
same,bacterial viability (survival),"[2]; strain CS-7, pH 5.5, 55 μM",67.7%
same,bacterial viability (survival),"[2]; strain CS-8, pH 4.5, 22 μM",79.5%
same,bacterial viability (survival),"[2]; strain CS-8, pH 4.5, 55 μM",49.4%
same,bacterial viability (survival),"[2]; strain CS-8, pH 5.5, 22 μM",81.8%
same,bacterial viability (survival),"[2]; strain CS-8, pH 5.5, 55 μM",61.8%
same,bacterial viability (survival),"[2]; strain CS-9, pH 4.5, 22 μM",83.9%
same,bacterial viability (survival),"[2]; strain CS-9, pH 4.5, 55 μM",77%
same,bacterial viability (survival),"[2]; strain CS-9, pH 5.5, 22 μM",73.8%
same,bacterial viability (survival),"[2]; strain CS-9, pH 5.5, 55 μM",46.9%
same,bacterial viability (survival),"[2]; strain CS-10, pH 4.5, 22 μM",83.6%
same,bacterial viability (survival),"[2]; strain CS-10, pH 4.5, 55 μM",52.3%
same,bacterial viability (survival),"[2]; strain CS-10, pH 5.5, 22 μM",68.9%
same,bacterial viability (survival),"[2]; strain CS-10, pH 5.5, 55 μM",68.2%
same,bacterial viability (survival),"[2]; strain CS-11, pH 4.5, 22 μM",100%
same,bacterial viability (survival),"[2]; strain CS-11, pH 4.5, 55 μM",50.7%
same,bacterial viability (survival),"[2]; strain CS-11, pH 5.5, 22 μM",140%
same,bacterial viability (survival),"[2]; strain CS-11, pH 5.5, 55 μM",59.4%
same,bacterial viability (survival),"[2]; strain CS-12, pH 4.5, 22 μM",98.6%
same,bacterial viability (survival),"[2]; strain CS-12, pH 4.5, 55 μM",91.1%
same,bacterial viability (survival),"[2]; strain CS-12, pH 5.5, 22 μM",110%
same,bacterial viability (survival),"[2]; strain CS-12, pH 5.5, 55 μM",74.2%
same,bacterial viability (survival),"[2]; strain CS-13, pH 4.5, 22 μM",93.5%
same,bacterial viability (survival),"[2]; strain CS-13, pH 4.5, 55 μM",87.4%
same,bacterial viability (survival),"[2]; strain CS-13, pH 5.5, 22 μM",74.0%
same,bacterial viability (survival),"[2]; strain CS-13, pH 5.5, 55 μM",65.8%
same,bacterial viability (survival),"[2]; strain CS-14, pH 4.5, 22 μM",100%
same,bacterial viability (survival),"[2]; strain CS-14, pH 4.5, 55 μM",51.9%
same,bacterial viability (survival),"[2]; strain CS-14, pH 5.5, 22 μM",74.2%
same,bacterial viability (survival),"[2]; strain CS-14, pH 5.5, 55 μM",71.6%
same,bacterial viability (survival),"[2]; strain CS-16, pH 4.5, 22 μM",95.9%
same,bacterial viability (survival),"[2]; strain CS-16, pH 4.5, 55 μM",10.9%
same,bacterial viability (survival),"[2]; strain CS-16, pH 5.5, 22 μM",87.9%
same,bacterial viability (survival),"[2]; strain CS-16, pH 5.5, 55 μM",20%
same,bacterial viability (survival),"[2]; strain CS-17, pH 4.5, 22 μM",108.2%
same,bacterial viability (survival),"[2]; strain CS-17, pH 4.5, 55 μM",92.3%
same,bacterial viability (survival),"[2]; strain CS-17, pH 5.5, 22 μM",102.0%
same,bacterial viability (survival),"[2]; strain CS-17, pH 5.5, 55 μM",48.3%
same,bacterial viability (survival),"[2]; strain CS-18, pH 4.5, 22 μM",68.2%
same,bacterial viability (survival),"[2]; strain CS-18, pH 4.5, 55 μM",71.5%
same,bacterial viability (survival),"[2]; strain CS-18, pH 5.5, 22 μM",114.8%
same,bacterial viability (survival),"[2]; strain CS-18, pH 5.5, 55 μM",92.2%
same,bacterial viability (survival),"[2]; strain CS-19, pH 4.5, 22 μM",93.0%
same,bacterial viability (survival),"[2]; strain CS-19, pH 4.5, 55 μM",101%
same,bacterial viability (survival),"[2]; strain CS-19, pH 5.5, 22 μM",96.9%
same,bacterial viability (survival),"[2]; strain CS-19, pH 5.5, 55 μM",87.9%
same,bacterial viability (survival),"[2]; strain CS-20, pH 4.5, 22 μM",91.0%
same,bacterial viability (survival),"[2]; strain CS-20, pH 4.5, 55 μM",100%
same,bacterial viability (survival),"[2]; strain CS-20, pH 5.5, 22 μM",103.9%
same,bacterial viability (survival),"[2]; strain CS-20, pH 5.5, 55 μM",88.9%
